Measurements from PubChem BioAssay (NCI).
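These data come from cells grown in 96-well plates and exposed to compound for 48 hours at five concentrations. GI50: concentration for 50% inhibition of growth. TGI: concentration producing complete growth inhibition.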

Experiments:
Test in all cases: NCI-60 cell line screen, 48 h
[1] = system: UACC-257 melanoma
[2] = system: IGROV1 ovarian
[3] = system: HCC-2998 colon
[4] = system: SK-MEL-28 melanoma
[5] = system: KM12 colon
[6] = system: TK-10 renal
[7] = system: MOLT-4 leukemia
[8] = system: EKVX NSCLC
[9] = system: SK-MEL-2 melanoma
[10] = system: HOP-92 NSCLC
[11] = system: SF-268 CNS
[12] = system: MCF7 breast
[13] = system: HL-60(TB) leukemia

SMILES | TGI [1] [µM] | TGI [2] [µM] | TGI [3] [µM] | TGI [4] [µM] | TGI [5] [µM] | TGI [6] [µM] | TGI [7] [µM] | TGI [8] [µM] | TGI [9] [µM] | TGI [10] [µM] | TGI [11] [µM] | TGI [12] [µM] | TGI [13] [µM] | GI50 [3] [nM] | GI50 [4] [nM] | GI50 [6] [nM] | GI50 [7] [nM] | GI50 [9] [nM] | GI50 [13] [nM] | GI50 [10] [nM]
CN1C(=O)CN2C(Cl)(Cl)C2(c2ccccc2)c2cc(Cl)ccc21 (configuration not stated) | > 100 | > 100 | > 100 | > 100 | > 100 | > 100 | 91.9 | > 100 | > 100 | 88.2 | > 100 |  |  |  |  |  |  |  |  | 
CCP(=O)(CC)C(Cl)(Cl)C(O)C(Cl)(Cl)Cl (configuration not stated) | > 100 | > 100 | > 100 | > 100 |  | > 100 | > 100 |  | > 100 | > 100 |  | > 100 | > 100 |  |  |  |  |  |  | 
CCCCCCCCCC/C=C/C=O | > 100 | > 100 | > 100 | > 100 | > 100 | > 100 | > 100 | > 100 | > 100 | > 100 | > 100 |  | > 100 |  |  |  |  |  |  | 
NCCCn1c2c(c3ccc([N+](=O)[O-])cc3c1=O)C(=O)c1cc(F)ccc1-2 |  |  | 0.233 | 1.54 |  | 2.7 |  |  | 1.05 | 0.845 |  |  | 0.166 | 36.7 | 229 | 372 | < 10 | 326 | < 16 | 90.2
Cc1cc(C)c(NC(=O)/C=C/c2ccccc2)c(C)c1 | > 100 | > 100 | > 100 | > 100 | > 100 | > 100 | > 100 | > 100 | > 100 | > 100 | > 100 | > 100 | > 100 |  |  |  |  |  |  | 
C#C[C@]1(O)[C@@H](CO)O[C@@H](n2ccc(N)nc2=O)[C@@H]1O | 8.03 | > 38.1 | 0.196 | 4.27 | 4.4 | 2.65 | > 32 | > 19.9 | 0.617 | 12.7 | 6.04 | > 100 | > 100 |  |  |  |  |  |  | 
